Source: US8633207B2, “Quinazoline compounds and methods of use thereof” (Ambit Biosciences Corporation, priority 2010, dated 2014)

Columns and labels:
JAK3 = target: T1, JAK3 (Homo sapiens, UniProt P52333); test: Competition binding assay to determine Kd against JAK kinases: JAK3
T1 construct: made in house; host or cells: T7 phage display, or HEK-293 cells (alternative)
T1 sequence (P52333 1-1124): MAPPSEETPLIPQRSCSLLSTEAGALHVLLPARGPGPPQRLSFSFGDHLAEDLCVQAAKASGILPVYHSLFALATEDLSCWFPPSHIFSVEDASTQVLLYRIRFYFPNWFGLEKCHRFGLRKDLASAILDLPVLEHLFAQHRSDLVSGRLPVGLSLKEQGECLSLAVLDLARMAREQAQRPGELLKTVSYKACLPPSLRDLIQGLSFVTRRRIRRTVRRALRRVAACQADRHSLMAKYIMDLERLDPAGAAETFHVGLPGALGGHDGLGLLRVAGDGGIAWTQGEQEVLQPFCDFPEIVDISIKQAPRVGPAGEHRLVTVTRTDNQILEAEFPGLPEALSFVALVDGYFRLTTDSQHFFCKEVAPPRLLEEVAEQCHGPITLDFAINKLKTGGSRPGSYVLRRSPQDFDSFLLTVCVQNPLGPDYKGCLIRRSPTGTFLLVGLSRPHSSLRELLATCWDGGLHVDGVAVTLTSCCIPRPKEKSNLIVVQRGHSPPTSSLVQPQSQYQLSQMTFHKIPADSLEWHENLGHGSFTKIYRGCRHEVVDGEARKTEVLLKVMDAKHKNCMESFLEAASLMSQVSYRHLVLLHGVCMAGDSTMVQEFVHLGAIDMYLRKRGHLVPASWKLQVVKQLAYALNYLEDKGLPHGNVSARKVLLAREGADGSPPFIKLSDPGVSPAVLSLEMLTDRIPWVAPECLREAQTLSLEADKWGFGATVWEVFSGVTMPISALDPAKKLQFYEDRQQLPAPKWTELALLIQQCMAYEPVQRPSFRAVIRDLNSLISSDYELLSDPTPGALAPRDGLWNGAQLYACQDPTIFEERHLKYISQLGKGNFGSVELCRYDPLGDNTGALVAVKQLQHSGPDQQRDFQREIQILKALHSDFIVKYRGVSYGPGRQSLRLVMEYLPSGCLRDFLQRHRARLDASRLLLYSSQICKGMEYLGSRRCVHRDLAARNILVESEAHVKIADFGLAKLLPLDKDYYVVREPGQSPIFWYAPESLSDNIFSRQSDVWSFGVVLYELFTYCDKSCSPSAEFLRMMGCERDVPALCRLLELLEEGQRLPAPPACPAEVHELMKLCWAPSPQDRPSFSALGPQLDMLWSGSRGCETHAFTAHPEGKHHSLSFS
Excerpt: (§1) Competition Binding Assay to Determine Binding Constants (Kd) of the Compounds Against JAK Kinases
(§2) Competition binding assays used herein were developed, validated and performed as described in Fabian et al., Nature Biotechnology 2005, 23, 329-336. Kinases were produced as fusions to T7 phage (See, Fabian et al. or WO04/015142) or alternatively, the kinases were expressed in HEK-293 cells and subsequently tagged with DNA for PCR detection (See, WO08/005,310). For the binding assays, streptavidin-coated magnetic beads were treated with biotinylated affinity ligands for 30 min at rt to generate affinity resins. The liganded beads were blocked with excess biotin and washed with blocking buffer (SeaBlock (Pierce), 1% BSA, 0.05% Tween 20, 1 mM DTT) to remove unbound ligand and to reduce non-specific binding. Binding reactions were assembled by combining kinase, liganded affinity beads, and test compounds in 1× binding buffer (20% SeaBlock, 0.17×PBS, 0.05% Tween 20, 6 mM DTT). Test compounds were prepared as 100× stocks in DMSO and rapidly diluted into the aqueous environment. DMSO was added to control assays lacking a test compound. Primary screen interactions were performed in polypropylene 384-well plates in a final volume of 34 μL, while Kd determinations were performed in polystyrene 96-well plates in a final volume of 135 μL. The assay plates were incubated at room temperature with shaking for 1 hour, long enough for binding reactions to reach equilibrium, and the affinity beads were washed extensively with wash buffer (1×PBS, 0.05% Tween 20) to remove unbound protein. The beads were then resuspended in elution buffer (1×PBS, 0.05% Tween 20, 2 μM non-biotinylated affinity ligand) and incubated at room temperature with shaking for 30 min. The kinase concentration in the eluates was measured by quantitative PCR. Each kinase was tested individually against each compound. Kds were determined using eleven serial threefold dilutions. A selectivity score, which is a quantitative measure of selectivity of a compound against a panel of enzymes, may be calculated for a compound by dividing the number of enzymes for which a compound meets a set criteria, (for example, a binding constant of 100 nM or less), by the total number of enzymes tested.

[1] = system: GM-CSFR/JAK2/STAT5 pathway; test: csTF-1 cell-based reporter assay; conditions: Homo sapiens; csTF-1 cells, GM-CSF at 2 ng/mL, 4 hours; read-out: Cell Assay: CS TF-1 reporter assay IC50
Description: csTF-1 Cell-Based Reporter Assay
csTF-1 cells are derived from the human erythroleukemia cell line that is growth dependent on GM-CSF and has an intact GM-CSFR/JAK2/STAT5 pathway. The cell line contains stably integrated beta-lactamase reporter gene under the control of the […] (irf 1) response element recognized by the activated transcription factor STATS. csTF-1 cells (Invitrogen K1219) were washed with assay media (97% OPTIMEM/0.5% dialyzed FBS/0.1 mM NEAA/1 mM Na pyr/P/S) and seeded in the same media at 5×10^5 cell/mL in T150 flask. After 16 hour incubation, cells were seeded at 2×10^5 cell/well in 50 μl volume, into Costar, clear bottom, 96-well assay plates. Serial dilutions of compounds were added to the plates with final DMSO concentration at 0.5% and GM-CSF at 2 ng/mL and the plates were then incubated at […] and 5% CO2 for 4 hours. The plates were brought to room temperature before adding Substrate Mixture according to manufacturer's protocol (Invitrogen, Catalog #K1085). The assay plates containing the substrate mixture were incubated in the dark at room temperature for 2 hours. Blue and green fluorescence was measured with excitation at 409 nm and emission at 460 nm (for blue) and excitation at 409 nm and emission at 530 nm (for green) using Spectra Max Gemini EM.

Tyk2 = target: T2, Tyk2 (Homo sapiens, UniProt P29597); test: Competition binding assay to determine Kd against JAK kinases: Tyk2
T2 construct: made in house; host or cells: T7 phage display, or HEK-293 cells (alternative)
Excerpt: as §1, §2

JAK2 = target: T3, JAK2 (Homo sapiens, UniProt O60674); test: Competition binding assay to determine Kd against JAK kinases: JAK2
T3 construct: made in house; host or cells: T7 phage display, or HEK-293 cells (alternative)
Excerpt: as §1, §2

T3 sequence (O60674 whole entry): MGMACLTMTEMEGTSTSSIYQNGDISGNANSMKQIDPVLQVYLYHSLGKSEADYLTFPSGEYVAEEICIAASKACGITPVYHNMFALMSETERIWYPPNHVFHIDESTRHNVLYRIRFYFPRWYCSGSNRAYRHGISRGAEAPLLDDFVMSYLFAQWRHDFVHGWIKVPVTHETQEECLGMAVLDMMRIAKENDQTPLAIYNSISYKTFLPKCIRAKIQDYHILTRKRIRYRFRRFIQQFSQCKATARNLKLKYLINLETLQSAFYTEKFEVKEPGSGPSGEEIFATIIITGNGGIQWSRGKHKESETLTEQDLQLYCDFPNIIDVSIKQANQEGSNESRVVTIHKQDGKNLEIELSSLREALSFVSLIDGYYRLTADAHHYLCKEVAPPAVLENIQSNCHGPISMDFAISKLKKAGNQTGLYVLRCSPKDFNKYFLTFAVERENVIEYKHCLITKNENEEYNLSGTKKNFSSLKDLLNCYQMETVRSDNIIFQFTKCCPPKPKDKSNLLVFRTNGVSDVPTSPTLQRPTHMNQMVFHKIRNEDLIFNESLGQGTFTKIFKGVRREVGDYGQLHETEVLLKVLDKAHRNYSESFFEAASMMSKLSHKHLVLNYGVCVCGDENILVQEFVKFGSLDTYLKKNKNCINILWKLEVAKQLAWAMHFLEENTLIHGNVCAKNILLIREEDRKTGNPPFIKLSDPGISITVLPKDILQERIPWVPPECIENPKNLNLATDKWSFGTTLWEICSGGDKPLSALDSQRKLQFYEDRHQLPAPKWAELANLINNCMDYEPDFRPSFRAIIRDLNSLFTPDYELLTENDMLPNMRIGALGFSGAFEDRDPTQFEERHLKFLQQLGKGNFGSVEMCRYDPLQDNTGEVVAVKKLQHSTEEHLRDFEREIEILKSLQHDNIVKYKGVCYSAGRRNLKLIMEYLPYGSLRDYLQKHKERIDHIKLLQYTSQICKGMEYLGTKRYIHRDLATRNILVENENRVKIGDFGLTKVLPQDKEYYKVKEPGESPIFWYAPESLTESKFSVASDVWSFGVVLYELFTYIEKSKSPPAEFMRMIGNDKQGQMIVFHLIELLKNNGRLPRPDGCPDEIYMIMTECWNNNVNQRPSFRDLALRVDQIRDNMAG
T2 sequence (P29597 whole entry): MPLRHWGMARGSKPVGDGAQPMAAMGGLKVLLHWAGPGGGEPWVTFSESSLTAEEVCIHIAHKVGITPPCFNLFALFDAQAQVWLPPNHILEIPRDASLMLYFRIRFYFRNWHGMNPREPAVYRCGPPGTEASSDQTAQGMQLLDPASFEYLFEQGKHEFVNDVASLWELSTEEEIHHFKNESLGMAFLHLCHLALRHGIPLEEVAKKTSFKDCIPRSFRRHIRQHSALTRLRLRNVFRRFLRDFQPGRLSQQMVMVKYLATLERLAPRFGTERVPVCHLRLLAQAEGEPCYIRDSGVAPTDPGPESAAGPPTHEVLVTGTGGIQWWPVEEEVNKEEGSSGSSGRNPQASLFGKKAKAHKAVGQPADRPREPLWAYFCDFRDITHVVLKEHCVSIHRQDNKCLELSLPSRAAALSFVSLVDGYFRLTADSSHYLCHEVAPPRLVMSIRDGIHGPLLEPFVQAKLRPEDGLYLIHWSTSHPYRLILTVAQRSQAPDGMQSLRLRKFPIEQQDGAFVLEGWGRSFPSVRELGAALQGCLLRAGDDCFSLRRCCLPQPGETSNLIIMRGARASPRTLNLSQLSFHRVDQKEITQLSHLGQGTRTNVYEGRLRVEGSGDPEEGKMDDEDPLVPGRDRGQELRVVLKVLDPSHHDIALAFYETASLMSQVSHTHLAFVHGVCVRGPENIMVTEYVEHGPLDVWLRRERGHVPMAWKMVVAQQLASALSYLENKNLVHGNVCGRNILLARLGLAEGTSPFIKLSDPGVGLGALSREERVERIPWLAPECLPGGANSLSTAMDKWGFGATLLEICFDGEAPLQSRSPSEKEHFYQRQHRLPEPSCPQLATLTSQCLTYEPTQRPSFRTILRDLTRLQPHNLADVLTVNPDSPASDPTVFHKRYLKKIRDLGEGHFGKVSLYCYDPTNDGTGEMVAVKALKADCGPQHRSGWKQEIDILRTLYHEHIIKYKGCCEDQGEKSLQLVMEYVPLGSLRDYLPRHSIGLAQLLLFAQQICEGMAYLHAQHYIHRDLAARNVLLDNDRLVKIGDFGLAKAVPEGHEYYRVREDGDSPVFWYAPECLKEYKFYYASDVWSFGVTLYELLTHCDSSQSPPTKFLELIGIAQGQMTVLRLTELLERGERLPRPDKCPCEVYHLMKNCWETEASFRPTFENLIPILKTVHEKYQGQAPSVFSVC

| SMILES | Kd (JAK3) [nM] | IC50 [1] [nM] | Kd (Tyk2) [nM] | Kd (JAK2) [nM] |
| --- | --- | --- | --- | --- |
| Cc1cc(Nc2nc(C(F)(F)c3ccc(F)cn3)nc3c(C#N)cccc23)n[nH]1 [Example 35, 2-(difluoro(5-fluoropyridin-2-yl)methyl)-4-((5-methyl-1H-pyrazol-3-yl)amino)quinazoline-8-carbonitrile] | 10 to 100 | 100 to 500 | ≤ 10 | ≤ 1 |
| Cc1cc(Nc2nc(C(F)(F)c3ncc(F)cn3)nc3c(Cl)cccc23)n[nH]1 [Example 40, 8-chloro-2-(difluoro(5-fluoropyrimidin-2-yl)methyl)-N-(5-methyl-1H-pyrazol-3-yl)quinazolin-4-amine] | 10 to 100 | ≤ 100 | ≤ 10 | ≤ 1 |
| Cc1cc(Nc2nc(C(F)(F)c3ccc(F)cn3)nc3c(C(=O)O)cccc23)n[nH]1 [Example 53, 2-(difluoro(5-fluoropyridin-2-yl)methyl)-4-((5-methyl-1H-pyrazol-3-yl)amino)quinazoline-8-carboxylic acid] | ≤ 10 | 100 to 500 | ≤ 10 | ≤ 1 |
| Cc1cc(Nc2nc(C(F)(F)c3ccc(F)cn3)nc3cc(Br)ccc23)n[nH]1 [Example 7, 7-bromo-2-(difluoro(5-fluoropyridin-2-yl)methyl)-N-(5-methyl-1H-pyrazol-3-yl)quinazolin-4-amine] | ≤ 10 | ≤ 100 | ≤ 10 | ≤ 1 |

Second part, the compound after the results:

| Kd (JAK3) [nM] | IC50 [1] [nM] | Kd (Tyk2) [nM] | Kd (JAK2) [nM] | SMILES |
| --- | --- | --- | --- | --- |
| ≤ 10 | ≤ 100 | ≤ 10 | ≤ 1 | Cc1cc(Nc2nc(C(F)(F)c3ccc(F)cn3)nc3c(NC=O)cccc23)n[nH]1 [Example 44, N-(2-(difluoro(5-fluoropyridin-2-yl)methyl)-4-((5-methyl-1H-pyrazol-3-yl)amino)quinazolin-8-yl)formamide] |
| ≤ 10 | > 500 | ≤ 10 | ≤ 1 | Cc1cc(Nc2nc(C(F)(F)c3ccc(F)cn3)nc3c(O)cccc23)n[nH]1 [Example 46, 2-(difluoro(5-fluoropyridin-2-yl)methyl)-4-((5-methyl-1H-pyrazol-3-yl)amino)quinazolin-8-ol] |
